Laboratory results as given in ChEMBL document CHEMBL5512663, “Design, synthesis, and evaluation of novel quindoline derivatives with fork-shaped side chains as RNA G-quadruplex stabilizers for repressing oncogene NRAS translation” (Eur J Med Chem, 2024).
Active and inactive are the calls of the source. The calls are words filed in the database; no cut-off is given here.

Columns and labels:
SK-MEL-2 [1] = experiment: Cytotoxicity against human SK-MEL-2 cells incubated for 48 hrs by MTT assay; format: functional, cell-based; conditions: SK-MEL-2, 48 h
Quadruplex RNA [2] = experiment: Thermal stabilization of NRAS RNA G4 (unknown origin) assessed as change in melting temperature at 10 uM by CD spectrophotometer analysis; format: nucleic-acid assay
A-375 = experiment: Cytotoxicity against human A-375 cells incubated for 48 hrs by MTT assay; format: functional, cell-based; conditions: A-375, 48 h
Quadruplex RNA [3] = experiment: Binding affinity to NRAS RNA G4 (unknown origin) by SPR method; format: nucleic-acid assay
Quadruplex DNA [4] = experiment: Thermal stabilization of NRAS DNA G4 (unknown origin) assessed as change in melting temperature at 10 uM by CD spectrophotometer analysis; format: nucleic-acid assay
HepG2 = experiment: Cytotoxicity against human HepG2 cells incubated for 48 hrs by MTT assay; format: functional, cell-based; conditions: HepG2, 48 h
[5] = Toxicity in BALB/c nude mouse assessed as pain at 1 mg/kg, ip administered every day for 21 days; format: organism-based; conditions: in vivo, 504 h, time 21 day
[6] = Drug localization in human SK-MEL-2 cells cytoplasm at 0.5 uM incubated for 24 hrs by laser scanning confocal microscopy; format: ADME, subcellular; conditions: sk-mel-2, 24 h
dsDNA = experiment: Thermal stabilization of DNA duplex (ds18) (unknown origin); format: nucleic-acid assay
SK-MEL-2 [7] = experiment: Antitumor activity against human SK-MEL-2 cells xenografted in BALB/c nude mouse assessed as reduction in tumor volume at 1 mg/kg, ip measured every 3 days; format: functional, organism-based; conditions: time 21.0 day, TDE = time-dependent effect
[8] = Toxicity in BALB/c nude mouse assessed as distress at 1 mg/kg, ip administered every day for 21 days; format: organism-based; conditions: in vivo, 504 h, time 21 day
HL-60 = experiment: Cytotoxicity against human HL-60 cells incubated for 48 hrs by MTT assay; format: functional, cell-based; conditions: HL-60, 48 h
Quadruplex RNA [9] = experiment: Induction of NRAS RNA G4 stabilization in human SK-MEL-2 cells transfected with NRAS 5'-UTR wild-type assessed as reduction in ratio of RL to FL at 0.5 uM incubated for 66 hrs by dual luciferase reporter gene assay; format: cell-based
[10] = Toxicity in BALB/c nude mouse assessed as organ damage at 1 mg/kg, ip administered every day for 21 days; format: organism-based; conditions: in vivo, 504 h, time 21 day
Quadruplex RNA [11] = experiment: Induction of NRAS RNA G4 stabilization in human SK-MEL-2 cells transfected with NRAS mutant assessed as reduction in ratio of RL to FL at 0.5 uM incubated for 66 hrs by dual luciferase reporter gene assay; format: cell-based
Quadruplex DNA [12] = experiment: Thermal stabilization of KRAS G4 (unknown origin); format: nucleic-acid assay
MCF7 = experiment: Cytotoxicity against human MCF7 cells incubated for 48 hrs by MTT assay; format: functional, cell-based; conditions: MCF7, 48 h
SK-MEL-2 [13] = experiment: Inhibition of colony formation in human SK-MEL-2 cells at 0.13 to 0.25 uM after 10 days by crystal violet staining based assay; format: functional, cell-based; conditions: dose 0.13-0.25 µM, time 10.0 day
[14] = Toxicity in BALB/c nude mouse assessed as discomfort at 1 mg/kg, ip administered every day for 21 days; format: organism-based; conditions: in vivo, 504 h, time 21 day
SK-MEL-2 [15] = experiment: Downregulation of NRAS protein level in human SK-MEL-2 cells after 72 hrs by Western blotting analysis; format: functional, cell-based; conditions: dose 0.5-1 µM
[16] = Toxicity in BALB/c nude mouse assessed as weight loss at 1 mg/kg, ip administered every day for 21 days and measured every 3 days; format: organism-based; conditions: in vivo, 504 h, time 21 day
Quadruplex RNA [17] = experiment: Induction of RNA G4s stabilization in human SK-MEL-2 cells assessed as increase in cytoplasmic rG4s after 24 hrs by immunofluorescence assay; format: cell-based
SK-MEL-2 [18] = experiment: Antitumor activity against human SK-MEL-2 cells xenografted in BALB/c nude mouse assessed as reduction in tumor growth inhibition at 1 mg/kg, ip administered every day for 21 days; format: functional; conditions: SK-MEL-2, 504 h, time 21 day, read-out: TGI
RNA = experiment: Thermal stabilization of RNA hairpin (unknown origin); format: nucleic-acid assay
SK-MEL-2 [19] = experiment: Antiproliferative activity against human SK-MEL-2 cells at 0.25 uM incubated for 48 hrs by MTT assay; format: functional
SK-MEL-2 [20] = experiment: Antitumor activity against human SK-MEL-2 cells xenografted in BALB/c nude mouse assessed as reduction in tumor weight at 1 mg/kg, ip; format: functional, organism-based; conditions: time 21.0 day, TDE = time-dependent effect
SK-MEL-2 [21] = experiment: Downregulation of NRAS mRNA level in human SK-MEL-2 cells by qRT-PCR analysis; format: functional, cell-based
[22] = Thermal stabilization of thrombin binding aptamer (unknown origin)

## CCN(CC)CCCOc1ccc2nc3c(oc4ccc(F)cc43)c(NCCCN)c2c1
SK-MEL-2 [1]
  IC50: 3.9 µM
Quadruplex RNA [2]
  ΔTm: 25.3 °C

## CCCCN(CCCC)CCCOc1ccc2nc3c(oc4ccc(F)cc43)c(NCCCN)c2c1
A-375
  IC50: 4.5 µM
Quadruplex RNA [3]
  Kd: 2.31 µM
Quadruplex DNA [4]
  ΔTm: 19 °C
HepG2
  IC50: 1.5 µM
SK-MEL-2 [1]
  IC50: 2 µM
[5]
  Activity: Non-Toxic
[6]
  Drug uptake: Active
dsDNA
  Activity: inactive
SK-MEL-2 [7]
  Activity: Tde
[8]
  Activity: Non-Toxic
HL-60
  IC50: 2.7 µM
Quadruplex RNA [9]
  Activity: Active
[10]
  Activity: Non-Toxic
Quadruplex RNA [11]
  Activity: inactive
Quadruplex DNA [12]
  Activity: inactive
MCF7
  IC50: 4.1 µM
SK-MEL-2 [13]
  inhibition: Active
[14]
  Activity: Non-Toxic
SK-MEL-2 [15]
  Activity: Dose-Dependent Effect
[16]
  Activity: Non-Toxic
Quadruplex RNA [17]
  Activity: Active
SK-MEL-2 [18]
  inhibition in vivo at 1 mg/kg: 54.9%
RNA
  Activity: inactive
SK-MEL-2 [19]
  Activity: 100%
SK-MEL-2 [20]
  Activity: Tde
SK-MEL-2 [21]
  Activity: inactive
Quadruplex RNA [2]
  ΔTm: 26.1 °C
[22]
  Activity: inactive

## CCCCN(CCCC)CCCOc1ccc2nc3c(oc4ccccc43)c(NCCN(C)C)c2c1
SK-MEL-2 [1]
  IC50: 5.7 µM
Quadruplex RNA [2]
  ΔTm: 22 °C

## CCN(CC)CCCOc1ccc2nc3c(oc4ccc(F)cc43)c(NCCN(C)C)c2c1
SK-MEL-2 [1]
  IC50: 6.4 µM
Quadruplex RNA [2]
  ΔTm: 26.3 °C

## CCCCN(CCCC)CCCNc1ccc2nc3c(oc4ccc(F)cc43)c(NCCN3CCCC3)c2c1
SK-MEL-2 [1]
  IC50: 3.4 µM
Quadruplex RNA [2]
  ΔTm: 19.8 °C

## CN(C)CCCCCCOc1ccc2nc3c(oc4ccc(F)cc43)c(NCCCN)c2c1
SK-MEL-2 [1]
  IC50: 7.7 µM
Quadruplex RNA [2]
  ΔTm: 25.3 °C

## CN(C)CCCCCCOc1ccc2nc3c(oc4ccc(F)cc43)c(NCCN(C)C)c2c1
SK-MEL-2 [1]
  IC50: 7.2 µM
Quadruplex RNA [2]
  ΔTm: 24.1 °C

## CCCCN(CCCC)CCOc1ccc2nc3c(oc4ccc(F)cc43)c(NCCCN)c2c1
SK-MEL-2 [1]
  IC50: 2 µM
Quadruplex RNA [2]
  ΔTm: 22.1 °C

## NCCCNc1c2cc(OCCN3CCCCCC3)ccc2nc2c1oc1ccc(F)cc12
SK-MEL-2 [1]
  IC50: 5.4 µM
Quadruplex RNA [2]
  ΔTm: 24.2 °C

## CCCCN(CCCC)CCOc1ccc2nc3c(oc4ccc(F)cc43)c(NCCN3CCCCC3)c2c1
SK-MEL-2 [1]
  IC50: 8.8 µM
Quadruplex RNA [2]
  ΔTm: 26.2 °C

## Fc1ccc2oc3c(NCCN4CCCC4)c4cc(OCCN5CCCCCC5)ccc4nc3c2c1
SK-MEL-2 [1]
  IC50: 6.9 µM
Quadruplex RNA [2]
  ΔTm: 21.4 °C

## NCCNc1c2cc(OCCN3CCCCCC3)ccc2nc2c1oc1ccc(F)cc12
SK-MEL-2 [1]
  IC50: 6.3 µM
Quadruplex RNA [2]
  ΔTm: 18.1 °C

## CCN(CC)CCCOc1ccc2nc3c(oc4ccc(F)cc43)c(NCCN3CCCC3)c2c1
SK-MEL-2 [1]
  IC50: 7.1 µM
Quadruplex RNA [2]
  ΔTm: 26.3 °C

## CCCCN(CCCC)CCCNc1ccc2nc3c(oc4ccc(F)cc43)c(NCCN3CCCCC3)c2c1
SK-MEL-2 [1]
  IC50: 5.4 µM
Quadruplex RNA [2]
  ΔTm: 21.3 °C

## CN(C)CCCCCCOc1ccc2nc3c(oc4ccc(F)cc43)c(NCCN)c2c1
SK-MEL-2 [1]
  IC50: 7.1 µM
Quadruplex RNA [2]
  ΔTm: 20.7 °C

## CCN(CC)CCCOc1ccc2nc3c(oc4ccc(F)cc43)c(NCCN)c2c1
SK-MEL-2 [1]
  IC50: 6.7 µM
Quadruplex RNA [2]
  ΔTm: 21.2 °C

## CCCCN(CCCC)CCOc1ccc2nc3c(oc4ccc(F)cc43)c(NCCN(C)C)c2c1
SK-MEL-2 [1]
  IC50: 4.5 µM
Quadruplex RNA [2]
  ΔTm: 26.3 °C

## CCCCN(CCCC)CCCOc1ccc2nc3c(oc4ccc(F)cc43)c(NCCN3CCN(C)CC3)c2c1
SK-MEL-2 [1]
  IC50: 4 µM
Quadruplex RNA [2]
  ΔTm: 31.8 °C

## CCCCN(CCCC)CCOc1ccc2nc3c(oc4ccc(F)cc43)c(NCCN3CCN(C)CC3)c2c1
SK-MEL-2 [1]
  IC50: 7.6 µM
Quadruplex RNA [2]
  ΔTm: 30.6 °C

## CCCCN(CCCC)CCCOc1ccc2nc3c(oc4ccc(F)cc43)c(NCCN)c2c1
SK-MEL-2 [1]
  IC50: 2.2 µM
Quadruplex RNA [2]
  ΔTm: 22.9 °C

## CCCCN(CCCC)CCCNc1ccc2nc3c(oc4ccc(F)cc43)c(NCCN(C)C)c2c1
SK-MEL-2 [1]
  IC50: 3.4 µM
Quadruplex RNA [2]
  ΔTm: 19.4 °C

## CCCCN(CCCC)CCCNc1ccc2nc3c(oc4ccc(F)cc43)c(NCCCN)c2c1
SK-MEL-2 [1]
  IC50: 4.5 µM
Quadruplex RNA [2]
  ΔTm: 19.3 °C

## CCCCN(CCCC)CCOc1ccc2nc3c(oc4ccc(F)cc43)c(NCCN)c2c1
SK-MEL-2 [1]
  IC50: 5.1 µM
Quadruplex RNA [2]
  ΔTm: 13.4 °C

## CCCCN(CCCC)CCCOc1ccc2nc3c(oc4ccccc43)c(NCCN3CCCC3)c2c1
SK-MEL-2 [1]
  IC50: 4.5 µM
Quadruplex RNA [2]
  ΔTm: 20.2 °C

## CN(C)CCCCCCOc1ccc2nc3c(oc4ccc(F)cc43)c(NCCN3CCCC3)c2c1
SK-MEL-2 [1]
  IC50: 7.4 µM
Quadruplex RNA [2]
  ΔTm: 24.8 °C

## CN(C)CCNc1c2cc(OCCN3CCCCCC3)ccc2nc2c1oc1ccc(F)cc12
SK-MEL-2 [1]
  IC50: 6.6 µM
Quadruplex RNA [2]
  ΔTm: 18.1 °C

## CCCCN(CCCC)CCCOc1ccc2nc3c(oc4ccc(F)cc43)c(NCCN3CCCCC3)c2c1
SK-MEL-2 [1]
  IC50: 5.5 µM
Quadruplex RNA [2]
  ΔTm: 24.4 °C

## CCCCN(CCCC)CCCNc1ccc2nc3c(oc4ccc(F)cc43)c(NCCN3CCN(C)CC3)c2c1
SK-MEL-2 [1]
  IC50: 4.3 µM
Quadruplex RNA [2]
  ΔTm: 25.5 °C

## CCCCN(CCCC)CCCOc1ccc2nc3c(oc4ccccc43)c(NCCCN)c2c1
SK-MEL-2 [1]
  IC50: 2.6 µM
Quadruplex RNA [2]
  ΔTm: 19.5 °C

## CSc1ccc(/C=C/c2ccc3nc4c(oc5ccccc54)c(NCCN4CCN(C)CC4)c3c2)cc1
SK-MEL-2 [1]
  IC50: 3.2 µM
Quadruplex RNA [2]
  ΔTm: 16.8 °C

## CCCCN(CCCC)CCCOc1ccc2nc3c(oc4ccc(F)cc43)c(NCCN(C)C)c2c1
SK-MEL-2 [1]
  IC50: 4 µM
Quadruplex RNA [2]
  ΔTm: 23.9 °C

## CCCCN(CCCC)CCOc1ccc2nc3c(oc4ccc(F)cc43)c(NCCN3CCCC3)c2c1
SK-MEL-2 [1]
  IC50: 5.1 µM
Quadruplex RNA [2]
  ΔTm: 24 °C

## CCCCN(CCCC)CCCOc1ccc2nc3c(oc4ccc(F)cc43)c(NCCN3CCCC3)c2c1
SK-MEL-2 [1]
  IC50: 4 µM
Quadruplex RNA [2]
  ΔTm: 20.8 °C
